From patent US5310930A, “Benzofuranylimidazole derivatives, a process for their preparation and therapeutical compositions containing the same” (priority 1991, dated 1994)
Read-outs that look alike come from different tables or passages of the source.

Tests used:
[1] = molecular target: imidazoline preferring receptor (IR); assay: Displacement of 3H-idazoxan (4 nM) in the presence of (-)-adrenaline (IR affinity); format: binding, rat; details: for Ki: 3H-idazoxan (4 nM), (-)-adrenaline (10^-6 M), rat cerebral cortex, mean of 10 experiments; for Selectivity IR/α1: selectivity ratio for IR/alpha1 from Ki values; for Selectivity IR/α2: selectivity ratio for IR/alpha2 from Ki values
Procedure: (§1) Initial biological evaluation of alpha1 - and alpha2 -adrenoceptor and imidazoline preferring receptor (IR) affinities and selectivities in homogenized rat cerebral cortex were assessed by determining the Ki values of the compounds to displace ^3 H-prazosin ^3 H-clonidine as well as ^3 H-idazoxan in the presence of (-)-adrenaline according to the method of Olmos et al. (J. Neurochem. 1991, 57:1811-1813).
(§2) This in vitro model is particularly useful as an initial screening for studying the affinity and the selectivity of these compounds on the imidazoline receptors.

alpha2-adrenoceptor = molecular target: T1, alpha2-adrenoceptor (Rattus norvegicus, UniProt P22909); assay: Displacement of 3H-clonidine (2 nM) (alpha2-adrenoceptor affinity); format: binding
T1 sequence (P22909 1-465): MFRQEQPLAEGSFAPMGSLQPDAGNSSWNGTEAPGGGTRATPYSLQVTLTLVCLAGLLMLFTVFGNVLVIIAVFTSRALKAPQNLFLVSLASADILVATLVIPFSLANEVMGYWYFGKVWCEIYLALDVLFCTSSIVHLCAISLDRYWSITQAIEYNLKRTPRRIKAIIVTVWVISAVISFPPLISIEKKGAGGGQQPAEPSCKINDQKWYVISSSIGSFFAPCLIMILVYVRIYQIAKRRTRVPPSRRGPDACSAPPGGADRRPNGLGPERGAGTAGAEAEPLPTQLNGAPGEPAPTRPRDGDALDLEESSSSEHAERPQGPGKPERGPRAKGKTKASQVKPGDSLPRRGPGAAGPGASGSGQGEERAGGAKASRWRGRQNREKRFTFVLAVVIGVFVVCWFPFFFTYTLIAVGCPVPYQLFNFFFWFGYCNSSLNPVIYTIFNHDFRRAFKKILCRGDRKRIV

alpha1-adrenoceptor = assay: Displacement of 3H-prazosin (0.5 nM) (alpha1-adrenoceptor affinity); format: binding; details: rat cerebral cortex, mean of 10 experiments
Procedure: as §1, §2

rats = assay: In vivo feeding behavior in rats (cumulative food intake after i.p. administration); parameters: species or system rat; details: for cumulative food intake / acute hyperphagic effect respect to the control group: rats; for cumulative food intake: N=5; for hyperphagic potency relative to idazoxan: 25 mg/kg i.p. versus idazoxan 10 mg/kg i.p.; for acute hyperphagic effect respect to the control group: 1-4 h, P<0.05
Excerpt: At present, certain compounds of the invention (Examples 1,2 and 3) have shown an in vivo CNS functional activity, such as: feeding behavior in rats.

[2] = Indian J. Chem. 1979, 18B, 254; cited from earlier work
[3] = Indian J. Chem. 1979, 18B, 254; cited from earlier work; remark: listed apart in the source
[4] = 3H-clonidine (2 nM), rat cerebral cortex, mean of 10 experiments, read-out: Affinity (Ki) Alpha2

Compound | Ki [1] [µM] | Selectivity IR/α1 [1] | Selectivity IR/α2 [1] | Ki (alpha2-adrenoceptor; [4]) [µM] | Ki (alpha1-adrenoceptor) [µM] | hyperphagic potency relative to idazoxan (rats) | acute hyperphagic effect respect to the control group (rats; 25 mg/kg i.p.) | also measured
COc1ccc2oc(-c3ncc[nH]3)cc2c1.Cl [Example 7, 2-(5-methoxybenzofuran-2-yl)imidazole hydrochloride] | 0.163 | 27 | 605 | 98.7 | 4.41 |  |  | 
Brc1ccc2oc(-c3ncc[nH]3)cc2c1.Cl [Example 6, 2-(5-bromobenzofuran-2-yl)imidazole hydrochloride] | 0.117 | 284 | 584 | 68.4 | 33.3 |  |  | 
COC1(C2=NCCN2)COc2ccccc2O1 (stereo not drawn) [RX 821002, reference compound] | 44.9 |  | 0.00002 | 0.0007 |  |  |  | 
c1ccc2c(c1)OCC(C1=NCCN1)O2 (stereo not drawn) [Idazoxan, reference compound] | 0.014 |  |  |  | 0.091 |  |  | cumulative food intake (rats; 10 mg/kg i.p., 1 h): 3.7 ± 1.2 g/kg body weight; cumulative food intake (rats; 10 mg/kg i.p., 2 h): 5.6 ± 2.1 g/kg body weight; cumulative food intake (rats; 10 mg/kg i.p., 4 h): 7.4 ± 2.3 g/kg body weight
c1ccc2oc(C3=NCCN3)cc2c1 |  |  |  |  |  |  |  | antibacterial activity [2]: without showing any noteworthy activity; antifungal activity [3]: without showing any noteworthy activity
Cl.Cn1ccnc1-c1cc2ccccc2o1 [Example 2, 1-methyl-2-(benzofuran-2-yl)imidazole hydrochloride] | 0.015 | 1740 | 4140 | 62.1 | 26.2 | lower in potency than those induced by idazoxan | 7-10 fold | cumulative food intake (rats; 25 mg/kg i.p., 1 h): 2.7 ± 1.5 g/kg body weight; cumulative food intake (rats; 25 mg/kg i.p., 2 h): 3.0 ± 1.5 g/kg body weight; cumulative food intake (rats; 25 mg/kg i.p., 4 h): 3.6 ± 1.4 g/kg body weight; potency for the I2-imidazoline receptors relative to idazoxan ([1]; data derived from binding studies): equally as potent as idazoxan; selectivity relative to idazoxan ([1]; data derived from binding studies (Table 1)): much more selective
Cl.c1ccc2oc(-c3ncc[nH]3)cc2c1 [Example 1, 2-(benzofuran-2-yl)imidazole hydrochloride] | 0.089 | 410 | 1 125 |  | 36.5 | lower in potency than those induced by idazoxan | 7-10 fold | cumulative food intake (rats; 25 mg/kg i.p., 1 h): 3.0 ± 2.0 g/kg body weight; cumulative food intake (rats; 25 mg/kg i.p., 2 h): 4.0 ± 2.1 g/kg body weight; cumulative food intake (rats; 25 mg/kg i.p., 4 h): 4.8 ± 2.0 g/kg body weight; Ki (alpha2-adrenoceptor): 100 µM
CCn1ccnc1-c1cc2ccc(OC)cc2o1.Cl [Example 9, 1-ethyl-2-(6-methoxybenzofuran-2-yl)imidazole hydrochloride] | 0.123 | 184 | 580 | 71.3 | 22.6 |  |  | 
COc1ccc2cc(-c3ncc[nH]3)oc2c1.Cl [Example 3, 2-(6-methoxybenzofuran-2-yl)imidazole hydrochloride] | 0.151 | 118 | 372 | 56.1 | 17.8 | lower in potency than those induced by idazoxan | 7-10 fold | 
